In patent publication US20260124281A1, “FORMULATIONS COMPRISING ACID-NEUTRALIZING POLYMER FOR ORAL ADMINISTRATION OF PARATHYROID HORMONE” (Entera Bio Ltd., priority 2022, published 2026):

Key:
pepsin = assay: Proteolysis of hPTH(1-34) by pepsin at various pH values; assay type: in vitro ADME; conditions: 13.5 μg/ml hPTH(1-34), 150 μg/ml pepsin, 37° C., media pH 2-7
Method: The effect of pH on peptide proteolysis by pepsin was determined by incubating 13.5 μg/ml human parathyroid hormone (1-34) (hPTH(1-34)) with 150 μg/ml pepsin, at various pH values, and determining the percentage of hPTH(1-34) which remained. The amount of hPTH(1-34) remaining upon addition to 150 μg/ml pepsin at 37° C., was determined in media with different pH values, followed by immediate (10 second) vortex and centrifugation for 3 minutes at 4° C., 4000 RCF. The following media were used: simulated gastric fluid (pH 2), prepared from 0.01 M HCl and NaCl; phthalate buffer (pH 4 or 5); and phosphate buffer (pH 6 or 7).

[1] = pH upon addition of test substance to 0.1 M HCl solution (pH 1.2), pH meter; assay type: physicochemical
Method: The solution pH was determined using an MP-103 pH-meter (MRC, Israel) equipped with ELC-10-00 electrode (MRC, Israel) or with a thin electrode HI1083 (HANNA instruments Inc.), shortly after dissolution and up to 26 hours later in order to ensure that the pH remained stable. The highest pH value obtained during the experimental time period was recorded in order to compare the acid-neutralizing capacity of each substance.
SNAC and the basic polymers sodium alginate, sodium carboxymethylcellulose in non-crosslinked (Na-CMC) and crosslinked (croscarmellose sodium, CCS) forms, and sodium starch glycolate (SSG) were dissolved in various volumes of 0.1 M HCl solution (pH 1.2) at concentrations of 1, 2, 4, 10, 20, 50, 100 and 150 mg/ml, and the solution pH was determined using an MP-103 pH-meter (MRC, Israel) equipped with ELC-10-00 electrode (MRC, Israel), as described in the Materials and Methods section hereinabove.
In order to obtain a beneficial rise in pH with a reduced loss of the active form of the absorption enhancer, the effect of various concentrations of different polymers containing carboxylate groups (sodium alginate, sodium starch glycolate, sodium carboxymethylcellulose, and croscarmellose sodium) on pH upon addition to a 0.1 M HCl solution (pH 1.2) was also evaluated. FIG. 3A presents pH values determined using an MP-103 pH-meter (MRC, Israel) equipped with ELC-10-00 electrode (MRC, Israel) and FIG. 3B presents pH values determined using an MP-103 pH-meter (MRC, Israel) equipped with a thin electrode HI1083 (HANNA instruments Inc.).

pH at which proteolysis of hPTH(1-34) by pepsin was inhibited (pepsin) | pH 5 minutes after dissolution ([1]; 10 mg/ml SNAC added to HCl solution (pH 1.2)) | pH 5 minutes after dissolution ([1]; 20 mg/ml SNAC added to HCl solution (pH 1.2)) | pH 5 minutes after dissolution ([1]; 100 mg/ml SNAC added to HCl solution (pH 1.2)) | dissolution upon addition to HCl solution ([1]; HCl solution (pH 1.2)) | SMILES
≥ 6 |  |  |  |  | CC[C@H](C)[C@H](NC(=O)[C@H](CCC(=O)O)NC(=O)[C@H](CO)NC(=O)[C@@H](NC(=O)[C@@H](N)CO)C(C)C)C(=O)N[C@@H](CCC(N)=O)C(=O)N[C@@H](CC(C)C)C(=O)N[C@@H](CCSC)C(=O)N[C@@H](Cc1cnc[nH]1)C(=O)N[C@@H](CC(N)=O)C(=O)N[C@@H](CC(C)C)C(=O)NCC(=O)N[C@@H](CCCCN)C(=O)N[C@@H](Cc1cnc[nH]1)C(=O)N[C@@H](CC(C)C)C(=O)N[C@@H](CC(N)=O)C(=O)N[C@@H](CO)C(=O)N[C@@H](CCSC)C(=O)N[C@@H](CCC(=O)O)C(=O)N[C@@H](CCCN=C(N)N)C(=O)N[C@H](C(=O)N[C@@H](CCC(=O)O)C(=O)N[C@@H](Cc1c[nH]c2ccccc12)C(=O)N[C@@H](CC(C)C)C(=O)N[C@@H](CCCN=C(N)N)C(=O)N[C@@H](CCCCN)C(=O)N[C@@H](CCCCN)C(=O)N[C@@H](CC(C)C)C(=O)N[C@@H](CCC(N)=O)C(=O)N[C@@H](CC(=O)O)C(=O)N[C@H](C(=O)N[C@@H](Cc1cnc[nH]1)C(=O)N[C@@H](CC(N)=O)C(=O)N[C@@H](Cc1ccccc1)C(=O)O)C(C)C)C(C)C [hPTH(1-34), teriparatide]
 | about 1.5 | 6.5 | about 7.5 | dissolved rapidly | O=C(O)CCCCCCCNC(=O)c1ccccc1O [SNAC, sodium 8-N-(2-hydroxybenzoyl)aminocaprylate]
